Laboratory results from patent US20060223812A1, “Treating neurodegenerative conditions” (MAX-PLANCK-GESELLSCHAFT ZUR FORDERUNGDER WISSENSCHAFTEN, …, priority 2004, published 2006).

Biological target: htau40 and tubulin dimer (Homo sapiens, UniProt P10636)
Experiment: Light scattering, tau-promoted microtubule assembly
Assay type: biochemical
Conditions: 60 μM compound, 10 μM tau, 30 μM tubulin
Experimental: The repeat domain of tau is not only important for PHF aggregation but also for the physiological function of microtubule binding. Microtubule polymerisation assays were performed in the absence and presence of compounds (FIG. 9).
The ability of tau to promote microtubule assembly was monitored by light scattering at 350 nm in a Tecan spectrophotometer model Safire (Tecan, Crailsheim, Germany). Tau protein (10 μM) was mixed with tubulin dimer (30 μM) and GTP (1 mM) at 4° C. in polymerisation buffer (100 mM Na-PIPES pH 6.9, 1 mM EGTA, 1 mM MgSO4, 1 mM DTT), with a final volume of 40 μl. Htau40 and inhibitor compounds (60 μM) were added last. After rapid mixing, the samples were pipetted into a Greiner transparent flat bottom 384 well plate (4 mm path length), which was prewarmed at 37° C. The reaction was started by incubating the cooled components of the reaction at 37° C. The assembly of tubulin into microtubules was monitored over time by a change in turbidity. Three parameters were extracted from curves. The maximum turbidity at steady state, the rate of assembly, and the lag time between the temperature jump and the start of the turbidity rise.
FIG. 9: Effect of compounds on microtubule binding 30 μM tubulin dimer was incubated in a microtiter plate at 37° C. in the absence and presence of htau40 (10 μM) and 60 μM compound. Absorbance was taken at 350 nm and plotted versus time. […]

Sequence of htau40 and tubulin dimer (P10636 1-441 isoform P10636-8): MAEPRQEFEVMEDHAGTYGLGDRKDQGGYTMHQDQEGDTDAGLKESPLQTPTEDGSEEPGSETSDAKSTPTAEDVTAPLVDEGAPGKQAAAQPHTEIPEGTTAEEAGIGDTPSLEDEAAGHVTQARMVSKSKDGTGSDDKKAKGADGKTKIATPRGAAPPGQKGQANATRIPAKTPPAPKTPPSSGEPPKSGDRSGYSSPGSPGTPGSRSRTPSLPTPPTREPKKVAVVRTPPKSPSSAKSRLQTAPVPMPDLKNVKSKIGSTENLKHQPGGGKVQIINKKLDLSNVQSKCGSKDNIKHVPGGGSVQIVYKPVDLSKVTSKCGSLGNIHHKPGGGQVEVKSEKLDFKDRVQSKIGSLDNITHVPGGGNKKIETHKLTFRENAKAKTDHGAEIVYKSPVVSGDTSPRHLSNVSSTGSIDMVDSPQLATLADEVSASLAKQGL

rate and extent of microtubule polymerisation: not significantly affected
SMILES: Nc1c(/N=N/c2ccc(-c3ccc(/N=N/c4cc(S(=O)(=O)O)c5ccccc5c4N)cc3)cc2)cc(S(=O)(=O)O)c2ccccc12 [Congo Red]
